Measured values from ChEMBL document CHEMBL5126524, “Niemann-Pick C1-Like 1 inhibitors for reducing cholesterol absorption” (Eur J Med Chem, 2022).

Target: T1, NPC1-like intracellular cholesterol transporter 1 (Homo sapiens, UniProt Q9UHC9)
T1 sequence (Q9UHC9 whole entry): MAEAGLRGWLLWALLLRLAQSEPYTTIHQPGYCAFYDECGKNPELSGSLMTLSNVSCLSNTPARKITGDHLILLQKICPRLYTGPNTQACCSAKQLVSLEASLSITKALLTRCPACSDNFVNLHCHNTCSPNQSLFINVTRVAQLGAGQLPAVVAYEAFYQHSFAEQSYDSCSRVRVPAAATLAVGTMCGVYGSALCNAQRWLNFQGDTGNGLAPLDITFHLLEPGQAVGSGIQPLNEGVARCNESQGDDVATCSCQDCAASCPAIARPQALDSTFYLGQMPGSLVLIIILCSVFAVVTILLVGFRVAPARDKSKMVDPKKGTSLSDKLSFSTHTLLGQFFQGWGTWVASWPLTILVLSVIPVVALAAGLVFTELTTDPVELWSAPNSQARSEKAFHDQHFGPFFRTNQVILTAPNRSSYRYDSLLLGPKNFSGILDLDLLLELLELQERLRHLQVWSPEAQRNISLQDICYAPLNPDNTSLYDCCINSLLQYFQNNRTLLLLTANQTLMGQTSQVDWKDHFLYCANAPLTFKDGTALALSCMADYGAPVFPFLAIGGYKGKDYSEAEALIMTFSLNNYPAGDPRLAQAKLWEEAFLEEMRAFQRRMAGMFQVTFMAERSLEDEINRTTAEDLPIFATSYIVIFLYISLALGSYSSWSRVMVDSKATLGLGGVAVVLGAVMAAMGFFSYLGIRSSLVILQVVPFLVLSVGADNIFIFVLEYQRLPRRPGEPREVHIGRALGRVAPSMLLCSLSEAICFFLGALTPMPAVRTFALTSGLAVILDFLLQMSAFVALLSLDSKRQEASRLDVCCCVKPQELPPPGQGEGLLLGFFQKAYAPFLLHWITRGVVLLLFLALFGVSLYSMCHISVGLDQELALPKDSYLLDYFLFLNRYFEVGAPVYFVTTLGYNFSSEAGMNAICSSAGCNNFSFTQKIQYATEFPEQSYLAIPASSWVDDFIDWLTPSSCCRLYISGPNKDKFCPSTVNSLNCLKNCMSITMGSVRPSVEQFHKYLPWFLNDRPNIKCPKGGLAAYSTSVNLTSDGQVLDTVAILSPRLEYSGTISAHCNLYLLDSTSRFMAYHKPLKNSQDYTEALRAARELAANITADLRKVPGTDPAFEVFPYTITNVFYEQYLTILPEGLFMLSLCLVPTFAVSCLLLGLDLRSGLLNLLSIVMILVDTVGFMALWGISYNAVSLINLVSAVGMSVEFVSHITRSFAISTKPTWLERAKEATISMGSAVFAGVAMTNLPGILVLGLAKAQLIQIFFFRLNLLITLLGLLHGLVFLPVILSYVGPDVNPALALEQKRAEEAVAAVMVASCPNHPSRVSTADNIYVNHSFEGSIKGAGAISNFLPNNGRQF
Test: Inhibition of NPC1L1 (unknown origin) assessed as inhibition of cholesterol cellular uptake by BCA colorimetric assay

Compound `O=C1[C@H](CC[C@H](O)c2ccc(F)cc2)[C@@H](c2ccc(O)cc2)N1c1ccc(F)cc1` [EZETIMIBE] has an IC50 of 370 nM.
